Experiments:
FANCM protein = assay: Western blot of FANCM protein levels; type: cell-based; settings: cells treated with CRISPR RNP sgRNA (FIG. 4B)
Description: Cells were plated for all conditions at a necessary density for analysis (1×10^7 cells per/reaction for nuclear isolation). Following treatment, cells were washed with PBS and trypsinized with TrypLE until loss of adherence. Cells were collected in a 15 mL falcon tube and spun down into a pellet at 1,000 RPM×5 minutes. The supernatant is aspirated and pellets were then placed into downstream protocol (NE-PER cell fractionation kit protocol as provided by vendor). Samples were run on 3-8% Bis-tris gels (Thermo fisher Cat #EA0375PK2) for 45 minutes @ 200 v. […] Membranes were stained overnight at 4 degrees with appropriate antibodies.
FANCM: Anti-FANCM Antibody, clone CV5.1 (MABC545) 1:1000 dilution
Lamin B: Recombinant Anti-Lamin B1 antibody [EPR8985(B)] (ab133741) 1:2000 dilution

[1] = test system: FANCM mRNA transcript in UWB1.289; assay: qPCR of FANCM mRNA expression after doxycycline induced shRNA; type: cell-based; settings: three days of doxycycline treatment
Source text: All shRNAs were cloned into pLKO-tet-on vector, packaged into lentivirus and titered for each cell line for an MOI <0.7.

With “FANCM sgRNA #3: sgRNA targeting the FANCM locus, SEQ ID NO: 69, CATGACCACGGCGGCAATAA (synthetic chemically modified sgRNA (Synthego EZ kit), pattern not given here)” the “FANCM protein expression (Western blot)” value (FANCM protein) was “loss of FANCM protein expression”.
In the case of “FANCM sgRNA #4: sgRNA targeting the FANCM locus, SEQ ID NO: 70, AAAGACCTTTATTGCCGCCG (synthetic chemically modified sgRNA (Synthego EZ kit), pattern not given here)”, the “FANCM protein expression (Western blot)” value (FANCM protein) is reported as “loss of FANCM protein expression”.
With “shRNA #1307: doxycycline-inducible shRNA targeting FANCM, SEQ ID NO: 77, GACTTCATGAAACTCTATAAT” the “FANCM mRNA transcripts (qPCR)” value [1] was “loss of FANCM mRNA transcripts”.
In the case of “shRNA #1858: doxycycline-inducible shRNA targeting FANCM, SEQ ID NO: 78, AGGACGAGAGGAACGTATTTA”, the “FANCM mRNA transcripts (qPCR)” value [1] is reported as “loss of FANCM mRNA transcripts”.
